Molecules are shown by their SMILES. A value given as a limit tells only on which side of the number the result lay.

In general, melting point refers to the temperature of the solid-liquid transition. With `COc1ccc(-c2[nH]nc3c2C(=O)c2c(NC(=O)NN4CCOCC4)cccc2-3)cc1` [Example 4, 1-[3-(4-methoxy-phenyl)-4-oxo-2,4-dihydro-indeno[1,2-c]pyrazol-5-yl]-3-morpholin-4-yl-urea], the melting point was 290 to 291 °C.

Take `COc1ccc(-c2[nH]nc3c2C(=O)c2c(NC(N)=O)cccc2-3)cc1` [Example 5, [3-(4-methoxy-phenyl)-4-oxo-2,4-dihydro-indeno[1,2-c]pyrazol-5-yl]-urea]: the melting point lay in the range of 267 to 269 °C. The figure for `COc1ccc(-c2[nH]nc3c2C(=O)c2c(NC(=O)CN4CCC(CN)CC4)cccc2-3)cc1` [Example 9, 2-(4-aminomethyl-piperidin-1-yl)-N-[3-(4-methoxy-phenyl)-4-oxo-2,4-dihydro-indeno[1,2-c]pyrazol-5-yl]-acetamide] is over 300 °C. The figure for `COC(=O)Nc1cccc2c1C(=O)c1c-2n[nH]c1-c1ccc(OC)cc1` [Example 11, 3-(4-Methoxyphenyl)-5-methoxycarbonylamino-2H-indeno-[1,2-c]pyrazol-4-one] is over 300 °C.

The record behind these values is patent publication US20040242869A1, “Semicarbazides and their uses” (priority 2001, published 2004).
